The values below come from ChEMBL document CHEMBL1201862, “PubChem BioAssay data set” (2004).

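Growth conditions: 96-well plates. Treatment: test compound, 48 hours, 5 concentrations. Analysis: linear interpolation between bracketing concentrations; unreached endpoints set to highest concentration. The concentration for 50% growth inhibition is given as GI50.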 Calls of active or inactive are those of the source. No stated cut-off is given here; in the data, active = GI50 up to about 1.1 µM and inactive = higher. Where a SMILES comes first, the peptide text is derived from it. Bridges are numbered along the chain shown (N, C = ends). [ ]: non-standard residue; d: D form. The star is where a group is joined. ξ: configuration not given here. PhAc = O=C(Cc1ccccc1)*; ξP = O=C(O)C1CCCN1 Where only a bound is given, the exact number is not on record here.

Common to all, as to experiment: NCI-60 cell line screen, 48 h
Assay [1] has as its system SN12C.
Assay [2] deals with OVCAR-8.
Assay [3] concerns EKVX.
Assay [4] concerns ACHN.
For assay [5], the system named is HOP-92.
The subject of assay [6] is SF-539.
Assay [7] relates to SW-620.
For assay [8], the system named is SK-MEL-28.
For assay [9], the system named is SNB-75.
Assay [10] concerns HCT-15.
The test system of assay [11] is HCT-116.
Assay [12] concerns M14.
Assay [13] deals with SF-268.
Assay [14] deals with HOP-62.
In assay [15] the test system is NCI-H23.
Assay [16] relates to SNB-19.
Assay [17] deals with NCI-H522.
In assay [18] the test system is NCI/ADR-RES.

Turning to `O=C1C=C(Nc2ccc(S(=O)(=O)Nc3ncccn3)cc2)c2ccccc2C1=O`, the GI50 was 21.5 µM (inactive) in assay [1]; 20.2 µM (inactive) in assay [2]; 24.7 µM (inactive) in assay [3]; 27 µM (inactive) in assay [4]; 33 µM (inactive) in assay [5]; 27.3 µM (inactive) in assay [6]. Also, the GI50 in assay [7] is 19.5 µM (inactive); in assay [8], 26 µM (inactive); in assay [9], 25.1 µM (inactive); in [10], 22.5 µM; in assay [11] it was 18.9 µM (inactive); in assay [12], 18.2 µM (inactive). The GI50 in assay [13] was 28.5 µM (inactive); in assay [14], 24.5 µM (inactive); in assay [15], 17.4 µM (inactive); in assay [16], 31.2 µM (inactive); in [17], 17.8 µM (inactive).

Consider `CC1(c2ccc[n+](Cc3ccccc3)c2)OCCO1`, for which the GI50 in assay [1], in assay [2], in [3], in assay [4], in assay [6] and in [7] was > 100 µM (inactive) each time. Further, the GI50 in assay [9] was > 100 µM (inactive); in assay [10], above 100 µM; in assay [11] it was > 100 µM (inactive); in assay [12], > 100 µM (inactive); in assay [14] it was > 100 µM (inactive); in [15] it was > 100 µM (inactive). Also, the GI50 in assay [16] and in [17] was > 100 µM (inactive) throughout.

On to `COCC1N=C(c2cc(OC)c(OC)c(OC)c2-c2cc3c(cc2[C@H](C)O)OCO3)O[C@H]1c1ccccc1` (some centres not stated), for which the GI50 in assay [1] is 46.5 µM (inactive); in [2], 81.5 µM (inactive); in [3], > 100 µM (inactive); in assay [4], 40.7 µM (inactive); in assay [5], 27.2 µM (inactive); in [6], 69.7 µM (inactive). The GI50 in assay [7] was > 100 µM (inactive); in assay [8], 59.2 µM (inactive); in assay [9] it was 49.2 µM (inactive); in [10] it was 56.9 µM; in assay [11] it was 44.6 µM (inactive); in assay [12], 72.3 µM (inactive). Further, the results for the GI50 in [15] and in [16] were 87.7 µM (inactive) and 61 µM (inactive), respectively.

As for `CCOC(=O)C1=C(OC(OCC)C(C)[Se]c2ccccc2)CCC1` (configuration not stated), the GI50 in assay [1] is 14.6 µM (inactive); in assay [2] it was 16 µM (inactive); in assay [3] it was 21.6 µM (inactive); in [4] it was 26.9 µM (inactive); in assay [5] it was 24.5 µM (inactive); in assay [6] it was 17.5 µM (inactive). In addition, the GI50 was 22.6 µM (inactive) in assay [8]; 30.1 µM (inactive) in assay [9]; 17.5 µM in assay [10]; 18.9 µM (inactive) in [11]; 20.5 µM (inactive) in assay [12]; 13.3 µM (inactive) in [13]. Moreover, the GI50 in assay [14] is 64.6 µM (inactive); in [15], 12.4 µM (inactive); in assay [16] it was 36.1 µM (inactive); in assay [17] it was 13.1 µM (inactive).

For `CCOC(=O)c1csc(NC(=O)CN2CCN(C)CC2)n1`, the GI50 in assay [2], in [3], in assay [4], in assay [5], in [18] and in assay [7] was > 100 µM (inactive) throughout. Further, the GI50 was > 100 µM (inactive) in [8]; > 100 µM (inactive) in assay [9]; above 100 µM in assay [10]; > 100 µM (inactive) in [12]; > 100 µM (inactive) in [14]; > 100 µM (inactive) in [15]. Moreover, the GI50 in [16] was > 100 µM (inactive).

On to `O=C(Cc1ccccc1)N[C@@H]1COC(=O)C2CCCN2C(=O)[C@@H]2CCCN2C1=O` (some centres not stated) (PhAc-[dS]-Pro-[ξP]; ester 1-C), for which the GI50 in [1], in assay [2], in [3], in [4], in [5] and in assay [18] was > 100 µM (inactive) throughout. Besides, the GI50 in assay [6] is > 100 µM (inactive); in assay [7] it was > 100 µM (inactive); in assay [8], > 100 µM (inactive); in assay [9] it was < 0.01 µM (active); in assay [10], above 100 µM; in [11], > 100 µM (inactive). The GI50 in assay [12], in [13], in [14], in assay [15] and in [16] was > 100 µM (inactive) in each case.

For the compound `O=P(NCCCO)(OCc1ccccc1)N(CCCl)CCCl` (configuration not stated), the GI50 in assay [1], in assay [2], in assay [5], in [18], in assay [6] and in assay [7] was > 100 µM (inactive) in each case. For the same compound, the GI50 in assay [8] was > 100 µM (inactive); in assay [9], > 100 µM (inactive); in assay [10], above 100 µM; in [11], > 100 µM (inactive); in assay [13] it was > 100 µM (inactive); in assay [15], > 100 µM (inactive). Further, the GI50 in assay [16] and in assay [17] was > 100 µM (inactive) in each case.

Consider `CC(NC(=O)OC(C)(C)C)C(=O)C(N)=O` (configuration not stated), for which the GI50 in assay [1], in [2], in [3], in assay [4], in [5] and in assay [18] was > 100 µM (inactive) throughout. The GI50 in [6] was > 100 µM (inactive); in assay [7] it was > 100 µM (inactive); in assay [8], > 100 µM (inactive); in assay [9] it was > 100 µM (inactive); in assay [10], above 100 µM; in assay [11] it was > 100 µM (inactive). Also, the GI50 in assay [12], in assay [13], in [14], in [15] and in [16] was > 100 µM (inactive) each time.

As for `COc1ccc(/C=C/C(=O)c2ccc(Br)cc2)cc1`, the GI50 was > 100 µM (inactive) in assay [1]; > 100 µM (inactive) in assay [2]; > 100 µM (inactive) in assay [3]; > 100 µM (inactive) in [4]; 52 µM (inactive) in assay [18]; > 100 µM (inactive) in [6]. Further, the GI50 in assay [7] was > 100 µM (inactive); in [8], > 100 µM (inactive); in assay [9] it was 93.5 µM (inactive); in assay [10], above 100 µM; in [11] it was 80.4 µM (inactive); in assay [12] it was > 100 µM (inactive). For the same compound, the GI50 in assay [13] is > 100 µM (inactive); in assay [14], > 100 µM (inactive); in [15] it was 30.6 µM (inactive); in assay [16] it was > 100 µM (inactive).

Take `CCCCOCn1c(=O)[nH]c(=O)c2cc(Br)ccc21`: the GI50 in [1] is 48.1 µM (inactive); in assay [2], 31.1 µM (inactive); in assay [3], 22.6 µM (inactive); in assay [4], 14.3 µM (inactive); in assay [5], 51.1 µM (inactive); in assay [18], 19.1 µM (inactive). Further, the GI50 is > 100 µM (inactive) in assay [6]; > 100 µM (inactive) in [7]; > 100 µM (inactive) in assay [8]; 39.7 µM (inactive) in [9]; 44.2 µM in [10]; 38.5 µM (inactive) in assay [11]. Also, the GI50 in assay [12] was 87.1 µM (inactive); in [16], 33.2 µM (inactive).
